# Source: patent publication US4205077A, “Benzimidazole sulphides as anthelmintic agents” (Ciba-Geigy Corporation, priority 1977, dated 1980)
# What was measured:
# [1] = Acute toxicity in rabbits; details: rabbit, in vivo, oral
# [2] = in vivo; details: rat, po
# [3] = Acute toxicity in rats; details: rat, in vivo, topical or ocular
compound,measurement,setting,value
"S=c1[nH]c2cc(Cl)c(Oc3ccc(Cl)cc3Cl)cc2[nH]1 [Example 1/2, 5-chloro-6-(2',4'-dichlorophenoxy)-2H-1,3-dihydro-benzimidazole-2-thione]",LD50,[1],> 6000 mg/kg
same,LD50,[2],3100 mg/kg
same,LD50,[3],> 3000 mg/kg
